# Read-outs that look alike come from different tables or passages of the source.
# Conditions: for dose-limiting toxicity (DLT): cohort of n=6 evaluable patients
# Method: Overall Study Design: The study consisted of two parts, each evaluating the safety and tolerability of AZD6738 when given in combination with paclitaxel. An oral formulation of AZD6738 was used. The first part (Part A) was in combination with paclitaxel; the starting dose of 40 mg AZD6738 OD was escalated to reach a maximum tolerated dose in patients with advanced solid malignancies, as defined by dose-limiting toxicity. […] We made the number and doses of these cohorts flexible so that we could make adjustment as the PK data emerged. […] Dose escalations were conducted in each cohort independently; however, number and doses of the cohorts were to be subject to change as the PK data emerged.
# Part A: We conducted a phase I trial for determining maximal tolerate dose (MTD) of AZD6738 when given in combination with fixed dose of paclitaxel in patients with refractory cancer. We used a rolling 6 design in this PART A. Treatment schedule was as follows. Start regimen (every 4 weeks): 40 mg OD dosing of AZD6738, 3 weeks on/ 1 week off; paclitaxel 80 mg/m2 on day 1, 8, 15 This part was in combination with paclitaxel of standard dose; starting dose of 40 mg AZD6738 OD was escalated to reach a maximum tolerated dose in metastatic solid cancer patients. Each cycle was composed of 4 weeks. The decision to dose escalate was to be made upon the assessment of the safety and tolerability data collected up until the time of study drug administration on Cycle 2, Day 1. This DLT assessment period was selected as the major toxicities leading to cessation of dose escalation in such studies (haematological, gastrointestinal, liver enzymes) were anticipated to present within this duration. Doses and/or schedules of AZD6738 were to be defined by the SRC. The cohort size of at least 3 and up to 6 patients (‘rolling six design’) was employed to improve the rate of accrual of patients to cohorts close to the presumed therapeutic dose by reducing the need for late replacement of patients who become non-evaluable during the DLT assessment period, whilst not compromising collection of safety data. […]
compound,measurement,setting,value
"C[C@@H]1COCCN1c1cc(C2([S@](C)(=N)=O)CC2)nc(-c2cc[nH]c3nccc2-3)n1 [AZD6738, 4-{4-[(3R)-3-methylmorpholin-4-yl]-6-[1-((R)-S-methylsulfonimidoyl)cyclopropyl]pyrimidin-2-yl}-1H-pyrrolo[2,3-b]pyridine]",dose-limiting toxicity (DLT),AZD6738 160 mg BD days 1-14 with paclitaxel,One dose-limiting toxicity (DLT) of neutropenic fever
same,dose-limiting toxicity (DLT),AZD6738 240 mg BD days 1-14 with paclitaxel,One dose-limiting toxicity (DLT) of neutropenic fever
same,maximum tolerated dose of AZD6738,"days 1-14 of 28-day cycle, with paclitaxel 80 mg/m2, per protocol",240 mg BID

# Source: patent publication US20230346791A1, “ATR INHIBITORS FOR THE TREATMENT OF CANCER” (AstraZeneca AB, priority 2020, published 2023)
